# Source: publication PMC7563863, “Quantification of Boron Compound Concentration for BNCT Using Positron Emission Tomography” (Cells, 2020)
# Columns and labels:
# [1] = Estimated concentration in the blood after injection; type: in vivo; details: rat
# Description: The initial concentration of NaBF4 in the blood after injection of 110 mg/kg in the rat is about 16 mM, but as it can be seen from Figure 3, it is expected to drop fast to about 25% at 90 min—that is, to 4 mM. BPA is injected at doses of 500 mg/kg, which in rats, results in an initial concentration in the blood of 37 mM. The transporter of BPA is L-type amino acid transporter (LAT1), which for the most similar compound, phenylalanine has an IC50 of about 60 µM [20]. This is a […] of magnitude higher concentration in the blood for phenylalanine, and BPA still allows reaching therapeutic boron concentrations in the tumor.
# NIS = system: NIS; set-up: method as in PMID 21085047; details: cited from earlier work
# [2] = Calculation of boron concentration in thyroid from PET activity concentration and production data; type: in vivo, rat
# Source text: As injection solution of the [^18F]NaBF4 tracer contains the majority of unlabeled NaBF4; from the NaBF4 molar concentration in the synthesis solution, we could know the labeled to unlabeled tracer compound concentration ratio at the beginning of the PET study. […] The boron concentration is known only with the spatial resolution of the PET image, which in the Mosaic scanner case is about 2.3 mm. The microscopic details of the boron concentration were inferred from NIS immunofluorescence, assuming that the BF4^− concentration is only significant in NIS-containing cells.
# Briefly, at the radiotracer production stage, the mass of NaBF4, Milli-Q water, and activity and volume of the [^18F]F^- Milli-Q water solution arriving from the cyclotron are known. Correcting for ^18F decay during the production and time needed for injection, with the known volume and activity of the produced and injected [^18F]NaBF4 tracer, we can calculate the amount of NaBF4 left from the production stage in the tissue from the activity concentration expressed initially as maximum local value of standard uptake value (SUVmax), then recalculated to kBq/mL and, then, to the molar concentration of ^18F at the beginning of the PET study.
# To calculate the boron concentration, we start from calculating the ^18F molar concentration in the product to be injected. At the end of synthesis (EOS, decay-corrected to PET study start), we received 4.3 GBq of [^18F]NaBF4 in 2 mL of saline. As the activity concentration A is A=N/τ , where N is the number of ^18F atoms and τ=t1/2/ln(2) , t1/2 of ^18F being 109.7 min expressed in seconds, and diluted in 25.9 mL of Milli-Q water, we obtained 33.9 nM of [^18F]NaBF4 at the EOS and 351 µM of unlabeled NaBF4. We can calculate the molar concentration in the hyperplasia maximum from the maximum of the curve in Figure 3: 2.3 MBq/mL. […] Dividing the calculated concentration of [^18F]NaBF4 36.8 pM by 9.7 × 10^−5, we receive, therefore, a 381 nM boron concentration, which is […] of the fraction of required 2 mM ^10B concentration for BNCT treatment.
# [3] = molecular target: T1, sodium-iodine symporter (NIS) in thyroids (Rattus norvegicus, UniProt Q63008); test: Two-tissue compartment kinetic modeling of the tracer in the thyroid VOI (PMOD PKIN); type: in vivo; details: two-tissue compartment model, hyperplastic thyroid
# T1 construct: It was injected into the tail veins of rats; from tissue; host or cells: thyroid (hyperplastic, perchlorate-treated) of living Wistar rats
# T1 sequence (Q63008 1-618): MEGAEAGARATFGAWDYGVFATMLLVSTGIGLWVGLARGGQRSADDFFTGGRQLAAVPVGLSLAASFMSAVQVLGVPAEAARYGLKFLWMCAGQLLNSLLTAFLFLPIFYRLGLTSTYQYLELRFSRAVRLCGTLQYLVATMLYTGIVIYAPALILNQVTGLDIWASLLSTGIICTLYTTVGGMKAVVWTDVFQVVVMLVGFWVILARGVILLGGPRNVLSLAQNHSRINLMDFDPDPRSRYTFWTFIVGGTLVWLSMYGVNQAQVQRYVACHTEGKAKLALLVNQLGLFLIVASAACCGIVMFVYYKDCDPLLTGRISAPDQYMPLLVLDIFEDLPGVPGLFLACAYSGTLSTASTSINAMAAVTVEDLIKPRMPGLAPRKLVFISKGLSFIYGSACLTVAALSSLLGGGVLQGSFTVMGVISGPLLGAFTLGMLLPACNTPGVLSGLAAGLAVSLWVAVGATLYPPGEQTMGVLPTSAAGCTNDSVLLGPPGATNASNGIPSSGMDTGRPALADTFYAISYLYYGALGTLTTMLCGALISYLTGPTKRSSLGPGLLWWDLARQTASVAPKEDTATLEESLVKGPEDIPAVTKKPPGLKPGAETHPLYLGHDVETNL
# Source text: The kinetic modeling of the tracer in VOIs was done using two tissue compartment models shown in Equation (1). Cp is the activity concentration of the tracer in the plasma, C1 and C2 are concentrations in two compartments, k are the kinetic constants, and t is time. The kinetic modeling was done in the PMOD module PKIN using full blood as the input function, with linear interpolation between experimental points taken from the dynamic image of the left ventricle of the heart.
# (1) dC2(t)/dt=k3C1(t)−k4C2(t)dC1(t)/dt=K1Cp(t)−(k2 + k3)C1(t) + k4C2(t)
# [4] = molecular target: T1, sodium-iodine symporter (NIS) in thyroids; test: Dynamic [^18F]NaBF4 PET/CT of the hyperplastic thyroid, time-activity curve; type: in vivo
# Description: Female Wistar rats, aged 16–17 weeks old and weighing 200–220 g at the study starting moment, were kept in pathogen-free cages at the animal facilities of the School of Medicine (University of Seville, Seville, Spain) under controlled laboratory conditions (temperature 20 ± 2 °C, humidity 40–50%, lighting regimen of 12 light/12 dark hours). Animals were fed a normal laboratory diet (Teklad diet, Envigo, Cambridgeshire, UK) and fresh tap water ad libitum. The study was approved by the Ethical Committee of the Faculty of Medicine, University of Seville. Animal handling was conducted following the Guide for the Care and Use of Laboratory Animals. Rats were divided into two equal groups: the control group and the treated group. Animals from the treated group received 1% potassium perchlorate (w/v) in the drinking water, ad libitum, for […]. All experiments were carried with the approval of the ethics committee of the University of Seville.
# PET imaging was carried out in a Mosaic microPET scanner (Philips, Andover, MA, USA) followed by a CT scan in NanoCT (Bioscan/Mediso, Budapest, Hungary). Briefly, animals were anesthetized with isoflurane. A catheter was placed in the tail vein. A radiotracer (41 MBq) was injected with a maximum limit of 5 mL/kg in a bolus injection. […]
# [5] = molecular target: T1, sodium-iodine symporter (NIS) in thyroids; set-up: method as in PMID 20577737; details: cited from earlier work
# [6] = system: L-type amino acid transporter (LAT1); set-up: method as in PMID 30048132; details: cited from earlier work
# thyroid gland = test: [^18F]FDG PET/CT of the thyroid gland; type: in vivo, rat
# Description: PET imaging was carried out in a Mosaic microPET scanner (Philips, Andover, MA, USA) followed by a CT scan in NanoCT (Bioscan/Mediso, Budapest, Hungary). Briefly, animals were anesthetized with isoflurane. A catheter was placed in the tail vein. A radiotracer (41 MBq) was injected with a maximum limit of 5 mL/kg in a bolus injection. In dynamic studies, this was done already in the PET scanner on a heated animal bed (Équipement Vétérinaire MINERVE, Esternay, France). For static studies, animals were awakened and let up for 45-min radiotracer uptake. Then, the animal was anesthetized again and placed in the heated bed of the PET scanner. The dynamic scans were of 90 min centered in the thyroids; the static ones were three beds of 10 cm longitudinal lengths starting from the head towards the tail. Each bed position was scanned for 15 min. CT scans were acquired in 45 kVp with 177 µA at 500 ms exposition and 240 projections per rotation.
# PET images were reconstructed using an iterative method with decay, scatter, and random corrections without attenuation correction. […] CT images were reconstructed using the filtered back-projection method with an exact cone-beam and with a Shepp Logan 98% filter, giving a 0.2 mm uniform pixel size. […]
smiles,measurement,setting,value
F[B-](F)(F)F.[Na+] [NaBF4],concentration in the blood at 90 min,"[1]; 110 mg/kg, expected",4000 µM
same,concentration in the blood at 90 min as fraction of initial,[1]; expected from Figure 3 blood curve,about 25%
same,IC50,NIS,1.6 µM
same,fraction of the required 2 mM ^10B concentration reached,[2]; 381 nM boron in hyperplastic thyroid,19 × 10^−5
same,boron concentration in thyroid with hyperplasia,"[2]; at peak, after 53 nmol (21 µg/kg) NaBF4 injected",381 nM
F[B-](F)(F)F.[Na+] [[^18F]NaBF4],Flux,[3],0.28
same,K1,[3],1.89
same,Kl/k2,[3],3.60
same,Vs (distribution volume of the specific binding),[3],3.96
same,Vt (distribution volume),[3],7.56
same,k2,[3],0.52
same,k3,[3],0.09
same,"k3/k4 (nondisplaceable binding potential, BPND)",[3],1.1
same,k4,[3],0.08
same,molar concentration of [^18F]NaBF4 in thyroid at peak,"[2]; hyperplasia maximum, from 2.3 MBq/mL",36.8 pM
same,capture in bones,[4]; PET,no capture in bones
same,peak activity concentration in thyroid,"[4]; hyperplastic thyroid, about 17 min after injection",2.3 MBq/mL
same,stability in vivo,[5],stable in vivo
N[C@@H](Cc1ccccc1)C(=O)O [phenylalanine],IC50,[6],~60 µM
"OC[C@H]1OC(O)[C@H]([18F])[C@@H](O)[C@@H]1O (stereo partly drawn) [[^18F]FDG, [^18F]fluorodeoxyglucose]",uptake in control and hyperplastic thyroid,thyroid gland; control thyroid and thyroid with hyperplasia,neither the control nor thyroid with hyperplasia show an abnormal uptake
same,SUVmax in thyroid tumor,thyroid gland; thyroid tumor,two
